Like-named read-outs stand apart in the source and are kept apart here.
Tests used:
Caki-1 = assay: Renal cancer cell growth IC50 (crystal violet); format: cell-based, human; settings: Caki-1, read-out: IC50
From the text: (§1) Exemplary Embodiments are generally performed as follows, unless otherwise noted. Simvastatin is purchased from Ark Pharm, Inc. (Arlington Heights, IL). Cisplatin (CIS) is purchased from MedKoo Biosciences, Inc. (Chapel Hill, NC). Dihydroartemisinin is purchased from TCI America (Portland, OR). All other chemicals and reagents are purchased from standard sources such as Sigma-Aldrich and/or VWR and are of highest quality available. Puromycin dihydrochloride was purchased from Alfa Aesar (Tewksbury, MA). Deionized water ([…]) used for making solutions is obtained from Milli-Q Direct Ultrapure Water System from Millipore (Billerica, MA, USA). All intermediates are characterized by 1H NMR and mass analysis and the purity of compounds are analyzed by HPLC. 1H NMR data are collected on Bruker 400 MHz spectrometers using standard parameters; chemical shifts are reported in ppm (δ) in reference to residual non-deuterated solvent. ESI mass spectroscopy analysis is performed using a Thermo Fisher LTQ Orbitrap Elite system. IC50 is the half maximal inhibitory concentration and determined is determined by crystal violet assay unless otherwise noted.
(§2) The crystal violet assay is performed as follows, unless otherwise noted. Cell lines are supplemented with RPMI 1640 medium, 10% fetal bovine serum, 1% PenStrep, and placed in a humidified atmosphere containing 5% CO2 at 37° C. 5,000 cells/well renal cancer cells and 10,000 cells/well lymphoma cells are seeded in 96 well plates in 100 microliter medium/per well for 24 h. […] Renal cancer cells are fixed with 3.7% paraformaldehyde for 15 minutes and are stained with Crystal violet solution (0.5% in 25% methanol) for 30 minutes. After rinsing with water cell layers are dried and decolorized with Sorenson citrate with shaking for 20 minutes. Light absorption of the extracted supernatant is read at 595 nm. Lymphoma cell growth was evaluated using MTT and cells are incubated for 4 hours. 100 microliters of isopropanol is added, and the extracted supernatant fraction is read at absorption maximum of 595 nm.
(§3) Standard cell culture conditions typically are RPMI 1640 medium, 10% fetal bovine serum, 1% PenStrep, and are performed in a humidified atmosphere containing 5% CO2 at 37° C. Generally, 5,000 cells/well-10,000 cells/well are seeded in 96 well plates in 100 microliter medium/per well for 24 h, or as described in Example 16, unless otherwise noted. Certain cells require specialized media, growth factors, antibiotics, or culture condition adjustments, as will be apparent to a person of ordinary skill in the art.
as §2, with “Cell” for “The crystal violet assay is performed as follows, unless otherwise noted. Cell”, “cultured as follows. […]” for “supplemented with RPMI 1640 medium, 10% fetal bovine serum, 1% PenStrep, and placed in a humidified atmosphere containing 5% CO2 at 37° C.”, “is” for “was”

Namalwa = assay: Lymphoma cell growth IC50 (MTT); format: cell-based, human
From the text: as §1, §2, §3
as §2, with “Cell” for “The crystal violet assay is performed as follows, unless otherwise noted. Cell”, “cultured as follows. […]” for “supplemented with RPMI 1640 medium, 10% fetal bovine serum, 1% PenStrep, and placed in a humidified atmosphere containing 5% CO2 at 37° C.”, “is” for “was”

CTC 752-S-1 = assay: Circulating tumor cell growth IC50 / sensitization; format: cell-based, human
From the text: as §1, §3
Pancreatic cancer cells are cultured for 72 hours in vitro and exposed to the conventional chemotherapeutic drugs Gemcitabine (GEM) and Paclitaxel (PAC), known to inhibit pancreatic cancer growth in patients. GEM (or PAC) alone are compared to a combination with SIM, or a combination with DZ-SIM. […] Representative results are illustrated in the graphs in FIG. 3.
Cells are cultured according to their standard culturing conditions, and IC50s are determined as described herein-above.
Representative results of the determined IC50s are shown in the table below for the indicated cancer cells cultured in vitro, including CTCs (C752-S-1), B-Cell Lymphoma (Namalwa), prostate cancer cells (C4-2B), and renal cancer cells (Caki-1). The cells are cultured according to their standard culturing conditions, and IC50s are determined as described herein-above.

C4-2B = assay: Cancer cell growth IC50 (crystal violet); format: cell-based
From the text: as §1, §2, §3

A549 or A549/DDP cells = assay: CIS IC50 with constant DZ-SIM ester or amide, Crystal Violet assay; format: cell-based, human; settings: combination with CIS; 72 h
Method: Cell proliferation is determined by a Crystal Violet assay. The data represent the mean+/−SEM for two assays done in quadruplicate.

[1] = Homo sapiens, Example 23, read-out: IC50
[2] = Homo sapiens, Example 23, CTC 752-S-1

IC50 (Caki-1; Homo sapiens, Example 23)	IC50 (Namalwa; [1])	IC50 (C4-2B; Example 23)	SMILES	IC50 (CTC 752-S-1; [2])	Sensitization of cancer cells to CIS (A549 or A549/DDP cells)	IC50 (Caki-1; Example 22)	IC50 (Namalwa; Example 22, read-out: IC50)	IC50 (CTC 752-S-1; Example 22, CTC 752-S-1, 3D cultured tumor spheroids)	IC50 (C4-2B; Example 22)
> 64 µM	22.4 µM	1.32 µM	COc1ccc(C[C@H](NC(=O)CCCCCN2/C(=C/C=C3\CCCC(/C=C/C4=[N+](CCCCS(=O)(=O)[O-])c5ccccc5C4(C)C)=C3Cl)C(C)(C)c3ccccc32)C(=O)NC2C(CO)OC(n3cnc4c(N(C)C)ncnc43)C2O)cc1 (some centres unmarked) [DZ-Puromycin]	31.4 µM	–	–	–	–	–
–	–	–	CCC(C)(C)C(=O)O[C@H]1C[C@@H](C)C=C2C=C[C@H](C)[C@H](CC[C@@H](O)C[C@@H](O)CC(=O)CCCCNC(=O)CCCCCN3/C(=C/C=C4\CCCC(/C=C/C5=[N+](CCCCS(=O)(=O)[O-])c6ccccc6C5(C)C)=C4Cl)C(C)(C)c4ccccc43)[C@H]21 [DZ-SIM amide]	–	sensitize cancer cells to CIS	–	–	–	–
0.88 µM	0.666 µM	0.0431 µM	COc1cccc2c1C(=O)c1c(O)c3c(c(O)c1C2=O)C[C@@](O)(C(=O)CO)C[C@@H]3O[C@H]1C[C@H](N)[C@H](O)[C@H](C)O1 [Doxorubicin]	1.82 µM	–	–	–	–	–
> 64 µM	6.23 µM	0.206 µM	COc1cccc2c1C(=O)c1c(O)c3c(c(O)c1C2=O)C[C@@](O)(C(=O)CO)C[C@@H]3O[C@H]1C[C@H](NC(=O)CCCCCN2/C(=C/C=C3\CCCC(/C=C/C4=[N+](CCCCS(=O)(=O)[O-])c5ccccc5C4(C)C)=C3Cl)C(C)(C)c3ccccc32)[C@@H](O)[C@H](C)O1 [DZ-Doxorubicin]	3.41 µM	–	–	–	–	–
–	–	–	CC1CCC2C(C)C(OC(=O)CCCCCN3C(=CC=C4CCCC(C=CC5=[N+](CCCCS(=O)(=O)[O-])c6ccccc6C5(C)C)=C4Cl)C(C)(C)c4ccccc43)OC3OC4(C)CCC1C32OO4 (centres unmarked) [DZ-ART ester]	–	–	0.703 µM	1.3 µM	1.64 µM	0.291 µM

Reference: US12121510B2 (Cedars-Sinai Medical Center, priority 2016, dated 2024)
